For this assay, the system named is P388 leukemia ip, CD2F1 mice, survival T/C. Description: NCI In Vivo Anticancer Drug Screen. Data for tumor model P388 Leukemia (intraperitoneal) in CD2F1 (CDF1) mice. As to conditions: endpoint: median survival time, higher = longer survival. In a few lines:
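Mice carrying the transplanted tumor received test compound or vehicle. Survival was recorded in each group, and the value is the treated-group measurement divided by that of the vehicle-treated control group.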

[1] abbreviates: dose: 100.0 mg/kg/injection, schedule: Q01DX009 (ip), vehicle: Klucel (hydroxypropylcellulose) (HPC).
The mark [2] stands for this setting: dose: 200.0 mg/kg/injection, schedule: Q01DX009 (ip), vehicle: Klucel (hydroxypropylcellulose) (HPC).
The mark [3] stands for this setting: dose: 60.0 mg/kg/injection, schedule: Q01DX005 (ip), vehicle: saline with Tween-80.
[4] abbreviates: dose: 120.0 mg/kg/injection, schedule: Q01DX005 (ip), vehicle: saline with Tween-80.
The mark [5] stands for this setting: dose: 240.0 mg/kg/injection, schedule: Q01DX005 (ip), vehicle: saline with Tween-80.
The mark [6] stands for this setting: dose: 50.0 mg/kg/injection, schedule: Q01DX005 (ip), vehicle: Klucel (hydroxypropylcellulose) (HPC).
Where [7] appears, read: dose: 100.0 mg/kg/injection, schedule: Q01DX005 (ip), vehicle: Klucel (hydroxypropylcellulose) (HPC).
[8] abbreviates: dose: 200.0 mg/kg/injection, schedule: Q01DX005 (ip), vehicle: Klucel (hydroxypropylcellulose) (HPC).
Setting [9] is: dose: 50.0 mg/kg/injection, schedule: Q01DX009 (ip), vehicle: saline with Tween-80.
Where [10] appears, read: dose: 100.0 mg/kg/injection, schedule: Q01DX009 (ip), vehicle: saline with Tween-80.
The mark [11] stands for this setting: dose: 200.0 mg/kg/injection, schedule: Q01DX009 (ip), vehicle: saline with Tween-80.
The mark [12] stands for this setting: dose: 50.0 mg/kg/injection, schedule: Q01DX009 (ip), vehicle: saline.
[13] abbreviates: dose: 100.0 mg/kg/injection, schedule: Q01DX009 (ip), vehicle: saline.
The mark [14] stands for this setting: dose: 200.0 mg/kg/injection, schedule: Q01DX009 (ip), vehicle: saline.

Where “and” joins values, the source holds several entries; their conditions need not be identical. Equal entries are not always repeated. Inconclusive results and toxic doses are left out.

Regarding `CCCCC(CC)COP(=O)(CC(CC)CCCC)OCC(CC)CCCC` (centres undefined), the T/C is 109 % of control (dose: 6.25 mg/kg/injection, schedule: Q01DX009 (ip), vehicle: saline); 109 % of control (dose: 12.5 mg/kg/injection, schedule: Q01DX009 (ip), vehicle: saline); 109 % of control (dose: 25.0 mg/kg/injection, schedule: Q01DX009 (ip), vehicle: saline); 100 % of control (dose: 25.0 mg/kg/injection, schedule: Q04DX003 (ip), vehicle: saline); 100 % of control (dose: 50.0 mg/kg/injection, schedule: Q04DX003 (ip), vehicle: saline); 113 % of control (dose: 100.0 mg/kg/injection, schedule: Q04DX003 (ip), vehicle: saline).

`O=c1[nH]c2c([N+](=O)[O-])cc(Cl)cc2nc1/C=C(\O)c1cccnc1`: the T/C (dose: 60.0 mg/kg/injection, schedule: Q01DX005 (ip), vehicle: Klucel (hydroxypropylcellulose) (HPC)) was 99 % of control; the T/C (dose: 120.0 mg/kg/injection, schedule: Q01DX005 (ip), vehicle: Klucel (hydroxypropylcellulose) (HPC)) was 99 % of control; the T/C (dose: 240.0 mg/kg/injection, schedule: Q01DX005 (ip), vehicle: Klucel (hydroxypropylcellulose) (HPC)) was 111 % of control.

For the compound `COC1/C=C\OC2(C)Oc3c(C)c(O)c4c(c3C2=O)C2=NC(C)(C)N(c3ccccc3)C2=C(NC(=O)/C(C)=C\C=C\C(C)C(O)C(C)C(O)C(C)C(OC(C)=O)C1C)C4=O` (centres undefined), the T/C by setting is: (dose: 25.0 mg/kg/injection, schedule: Q01DX009 (ip), vehicle: Klucel (hydroxypropylcellulose) (HPC)) 100 % of control; (dose: 50.0 mg/kg/injection, schedule: Q01DX009 (ip), vehicle: Klucel (hydroxypropylcellulose) (HPC)) 103 % of control; under setting [1], 98 % of control; under setting [2], 107 % of control.

Take `CCc1ccc2nc3ccccc3c(NCCCCCCNc3c4ccccc4nc4ccc(CC)cc34)c2c1`: the T/C reads like this: (dose: 0.62 mg/kg/injection, schedule: Q01DX009 (ip), vehicle: other) 100 % of control; (dose: 1.25 mg/kg/injection, schedule: Q01DX009 (ip), vehicle: other) 114 % of control; (dose: 2.5 mg/kg/injection, schedule: Q01DX009 (ip), vehicle: other) 105 % of control; (dose: 5.0 mg/kg/injection, schedule: Q01DX009 (ip), vehicle: other) 116 % of control; (dose: 10.0 mg/kg/injection, schedule: Q01DX009 (ip), vehicle: other) 124 % of control.

Consider `COC(=O)C(=O)c1c(C(=O)OC)nc2[nH]n(-c3ccccc3)c(=O)c2c1Cc1ccccc1`, for which the T/C was 98 % of control under setting [3], 100 % of control under setting [4] and 91 % of control under setting [5].

Consider `CCOC(=O)N(NC(=O)c1ccccc1)C(C)=O`, for which the T/C was 111 % of control (dose: 12.5 mg/kg/injection, schedule: Q01DX009 (ip), vehicle: other); 109 % of control (dose: 25.0 mg/kg/injection, schedule: Q01DX009 (ip), vehicle: other); 99 % of control (dose: 50.0 mg/kg/injection, schedule: Q01DX009 (ip), vehicle: other).

As for `O=C(O)c1cccc2c1C(=O)N(c1ccc3c(c1)Cc1ccccc1-3)C2=O`, the T/C reads like this: (dose: 25.0 mg/kg/injection, schedule: Q01DX005 (ip), vehicle: Klucel (hydroxypropylcellulose) (HPC)) 97 % of control; under setting [6], 98 % of control; under setting [7], 95 % of control; under setting [8], 96 % of control.

For `CN(CC(=O)O)N=Nc1ccc(C(N)=O)cc1`, the T/C under setting [6] was 100 % of control, the T/C under setting [7] was 96 % of control and the T/C under setting [8] is 100 % of control.

As to `[Cl][Pt+2][Cl].[NH-]c1ccc(Cl)cc1[NH-]`, the T/C (dose: 6.25 mg/kg/injection, schedule: Q04DX002 (ip), vehicle: saline with Tween-80) was 150 % of control; the T/C (dose: 12.5 mg/kg/injection, schedule: Q04DX002 (ip), vehicle: saline with Tween-80) is 157 % of control; the T/C (dose: 25.0 mg/kg/injection, schedule: Q04DX002 (ip), vehicle: saline with Tween-80) was 168 % of control.

In the case of `S=c1ncnc2cc3[nH][nH]cc3cc12`, the T/C (dose: 50.0 mg/kg/injection, schedule: Q01DX005 (ip), vehicle: saline with Tween-80) was 90 % of control; the T/C (dose: 100.0 mg/kg/injection, schedule: Q01DX005 (ip), vehicle: saline with Tween-80) is 86 % of control; the T/C (dose: 200.0 mg/kg/injection, schedule: Q01DX005 (ip), vehicle: saline with Tween-80) is 92 % of control.

For the compound `C[C@H]1CC[C@@]2(C)C(CCC(=O)C2(C)O)[C@]1(C)CC(=O)c1ccoc1` (some centres undefined), the T/C (dose: 3.75 mg/kg/injection, schedule: Q01DX005 (ip), vehicle: Klucel (hydroxypropylcellulose) (HPC)) is 91 % of control; the T/C (dose: 7.5 mg/kg/injection, schedule: Q01DX005 (ip), vehicle: Klucel (hydroxypropylcellulose) (HPC)) is 88 % of control; the T/C (dose: 15.0 mg/kg/injection, schedule: Q01DX005 (ip), vehicle: Klucel (hydroxypropylcellulose) (HPC)) is 88 % of control; the T/C (dose: 30.0 mg/kg/injection, schedule: Q01DX005 (ip), vehicle: Klucel (hydroxypropylcellulose) (HPC)) was 88 % of control.

For the compound `COc1ccc(NC(=O)Nc2nc3c(C)cccc3s2)cc1`, the T/C runs as follows: under setting [6], 101 % of control; under setting [7], 98 % of control; under setting [8], 93 % of control.

On to `Cc1cc2cc3c(c(C(=O)O)c2o1)C(=O)c1ccccc1C3`, for which the T/C was 107 % of control under setting [3], 111 % of control under setting [4] and 94 % of control under setting [5].

For the compound `CC(=O)NC(CC(C)C)C(=O)O` (centres undefined), the T/C (dose: 25.0 mg/kg/injection, schedule: Q01DX009 (ip), vehicle: saline with Tween-80) was 95 % of control; the T/C under setting [9] was 86 % of control and 94 % of control; the T/C under setting [1] is 104 % of control; the T/C under setting [10] was 100 % of control and 105 % of control; the T/C under setting [2] is 114 % of control; the T/C under setting [11] is 118 % of control. Also, the T/C (dose: 400.0 mg/kg/injection, schedule: Q01DX009 (ip), vehicle: Klucel (hydroxypropylcellulose) (HPC)) is 100 % of control and the T/C (dose: 400.0 mg/kg/injection, schedule: Q01DX009 (ip), vehicle: saline with Tween-80) is 105 % of control.

`CNC(=O)Oc1ncccc1[N+](=O)[O-]`: the T/C by setting is: under setting [12], 98 % of control and 117 % of control; under setting [13], 107 % of control and 119 % of control; under setting [14], 98 % of control and 88 % of control.

In the case of `CCOC(=O)CCOCOCCC(=O)OCC`, the T/C is 100 % of control under setting [13]; 115 % of control under setting [14]; 110 % of control (dose: 400.0 mg/kg/injection, schedule: Q01DX009 (ip), vehicle: saline).

`CSC1=NC(=S)C(C)(C)NN1`: where the note is “dose: 100.0 mg/kg/injection, schedule: Q04DX002 (ip), vehicle: Klucel (hydroxypropylcellulose) (HPC)”, the T/C is 104 % of control.

`CCCCCCCCCCCCCCCCOc1ccc(/C=N/Nc2ccccc2)cc1OC`: the T/C is, setting by setting: under setting [9], 88 % of control; under setting [10], 93 % of control.

For the compound `CN(C)/C=N/c1c(C#N)c(-c2ccccc2)c(-c2ccccc2)n1-c1ccccc1`, the T/C is, setting by setting: under setting [9], 97 % of control; under setting [12], 98 % of control; under setting [13], 93 % of control; under setting [11], 96 % of control; under setting [14], 87 % of control.

These data come from PubChem BioAssay AID330 (DTP/NCI, 2004).
